What was measured:
[1] = molecular target: Mas-related G-protein coupled receptor member X1 (Homo sapiens) (UniProt Q96LB2); assay: Activation of human MrgX1 receptor expressed in NIH/3T3 cells incubated for 5 days by beta-galactosidase reporter gene assay relative to Bam22; format: cell-based; conditions: NIH3T3
[2] = molecular target: T1, Mas-related G-protein coupled receptor member X2 (Homo sapiens) (UniProt Q96LB1); assay: Activation of human MrgX2 receptor expressed in NIH/3T3 cells incubated for 5 days by beta-galactosidase reporter gene assay relative to STIA; format: cell-based; conditions: NIH3T3
T1 sequence (whole entry): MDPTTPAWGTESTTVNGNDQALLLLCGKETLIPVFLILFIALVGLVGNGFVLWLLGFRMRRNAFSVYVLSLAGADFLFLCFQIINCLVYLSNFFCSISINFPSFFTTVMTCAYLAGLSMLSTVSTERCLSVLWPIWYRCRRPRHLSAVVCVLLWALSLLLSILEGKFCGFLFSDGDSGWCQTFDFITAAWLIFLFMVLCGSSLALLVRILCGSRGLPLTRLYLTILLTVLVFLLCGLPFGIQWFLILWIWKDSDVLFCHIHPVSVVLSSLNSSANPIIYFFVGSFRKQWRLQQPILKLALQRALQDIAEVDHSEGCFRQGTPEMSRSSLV

Mas-related G-protein coupled receptor member X1 (Homo sapiens), sequence (Q96LB2 whole entry): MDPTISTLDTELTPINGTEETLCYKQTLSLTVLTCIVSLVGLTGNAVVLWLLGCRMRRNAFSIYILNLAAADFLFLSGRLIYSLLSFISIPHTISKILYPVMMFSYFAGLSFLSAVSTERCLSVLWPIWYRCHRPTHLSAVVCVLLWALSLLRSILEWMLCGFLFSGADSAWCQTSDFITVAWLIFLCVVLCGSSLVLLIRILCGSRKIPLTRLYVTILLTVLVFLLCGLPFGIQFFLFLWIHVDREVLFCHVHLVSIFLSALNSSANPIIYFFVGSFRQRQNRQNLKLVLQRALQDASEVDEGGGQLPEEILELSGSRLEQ

Efficacy [1] [%] | Efficacy [2] [%] | Structure (SMILES)
95 | 21 | N=C(N)NCCC[C@@H](C(N)=O)n1c(-c2cccc(Oc3ccccc3)c2)nc2cc(C(=O)NCc3cccc(C(F)(F)F)c3)ccc21
203 | 6 | N=C(N)NCCC[C@H](C(N)=O)n1c(-c2cccc(Oc3ccccc3)c2)nc2cc(C(=O)N3CCOCC3)ccc21
221 | 2 | N=C(N)NCCC[C@H](C(N)=O)n1c(-c2cccc(Oc3ccccc3)c2)nc2cc(C(=O)Nc3ccc4cn[nH]c4c3)ccc21

Source: ChEMBL document CHEMBL3714739, “Compounds for the treatment of pain and screening methods therefor” (2008)
